The source of these data is patent publication US9498442B2 (ALFA WASSERMANN S.P.A., priority 2010, dated 2016).

Data set [1] in a line: Solubility over time of rifaximin preparations in phosphate buffer pH 6.8. The data set is classed as physicochemical. As for the experimental part:
Samples taken at 5-minute intervals during the first hour and at 15-minute intervals in the remaining time, are analysed in HPLC after filtration.

Data set [2] in a line: Particle size dimension (PSD), Beckman-Coulter LS100 Q. It counts as physicochemical. As to conditions: solvent White Spirit. As for the experimental part:
The particle size analysis were performed using Beckman—Coulter LS100 Q particle size analyzer equipped with a micro-volume cell. The solvent used is White Spirit (WS). In Table 4 are reported the average size of the particles obtained with spray drying and milling processes.

A short description of data set [3]: PK study on dogs of rifaximin prepared by spray drying. It counts as in vivo, dog (beagle). The note with it: blood. As to the method:
Capsules of hard gelatin containing only rifaximin were administered, and the pre- and post-dose observations, the body weight and the physical examination were evaluated.
Blood samples were collected from all animals on each day of dosing at: 0 (pre-dose), 1, 2, 4, 6, 8 and 24 hours after each dosing.

A further data set in a line: Bulk density. It counts as physicochemical. The note with it: 10 ml volumetric flask, three samples.
Data set [4] is described as follows: Stability of rifaximin powder obtained by spray drying on storage. It counts as physicochemical. As to conditions: for Description / Total impurities / Water content (Karl Fisher) / X-Ray diffraction spectrum: 40° C. ± 2° C., RH 75 ± 5%; for X-Ray diffraction spectrum: complies with an amorphous form of Rifaximin.
Data set [5] is described as follows: Rifaximin solubility at different pH, shake flask method. The data set is classed as physicochemical. The note with it: for solubility: thermodynamic from solid, shake flask, 20° C. As to the method: The study was conducted in accordance with accepted principles in order to meet the requirements of the Annex to European Commission Directive 92/69/EEC and the OECD Guidelines for Testing of Chemicals (EEC Method A6, OECD Method 105). […] Aliquots of the saturated solutions of rifaximin-α were adequately diluted, then analyzed by a high performance liquid chromatography (HPLC) method.

Data set [6] concerns enteric bacteria pathogens. The note with it: cited from earlier work.
Data set [7] deals with enterotoxogenic Escherichia coli isolates. As to conditions: cited from earlier work.

Each structure is given as a SMILES string. Converted amounts (≈) assume the structure as drawn. Where two headings read alike, the source gives them in different places.

As for `CO[C@H]1/C=C/O[C@@]2(C)Oc3c(C)c(O)c4c(O)c(c5c(nc6cc(C)ccn65)c4c3C2=O)NC(=O)/C(C)=C\C=C\[C@H](C)[C@H](O)[C@@H](C)[C@@H](O)[C@@H](C)[C@H](OC(C)=O)[C@@H]1C` [Example 1, rifaximin], the “Solubility over time, Concentration” value came to 30.2 mg/L (≈ 38.4 µM) in data set [1] (10 min, phosphate buffer pH 6.8, 30±0.5° C., listed as Spray drying); 44.0 mg/L (≈ 56 µM) in data set [1] (15 min, phosphate buffer pH 6.8, 30±0.5° C., listed as Spray drying); 47.0 mg/L (≈ 59.8 µM) in data set [1] (20 min, phosphate buffer pH 6.8, 30±0.5° C., listed as Spray drying); 38.0 mg/L (≈ 48.4 µM) in data set [1] (25 min, phosphate buffer pH 6.8, 30±0.5° C., listed as Spray drying); 11.0 mg/L (≈ 14 µM) in data set [1] (60 min, phosphate buffer pH 6.8, 30±0.5° C., listed as Spray drying); 9.9 mg/L (≈ 12.6 µM) in data set [1] (75 min, phosphate buffer pH 6.8, 30±0.5° C., listed as Spray drying). Besides, the “Solubility over time, Concentration” value in data set [1] (90 min, phosphate buffer pH 6.8, 30±0.5° C., listed as Spray drying) was 9.5 mg/L (≈ 12.1 µM); in data set [1] (105 min, phosphate buffer pH 6.8, 30±0.5° C., listed as Spray drying), 9.3 mg/L (≈ 11.8 µM); in data set [1] (120 min, phosphate buffer pH 6.8, 30±0.5° C., listed as Spray drying), 9.1 mg/L (≈ 11.6 µM); in data set [1] (135 min, phosphate buffer pH 6.8, 30±0.5° C., listed as Spray drying), 9.0 mg/L (≈ 11.5 µM); in data set [1] (150 min, phosphate buffer pH 6.8, 30±0.5° C., listed as Spray drying) it was 8.8 mg/L (≈ 11.2 µM). For the same molecule, in data set [1] (phosphate buffer, 30 °C, pH 6.8, aqueous buffer, thermodynamic from solid, 5 min, 500 mg in 750 ml phosphate buffer pH 6.8, 30±0.5° C., 250 rpm, read-out: Solubility over time, Concentration), the solubility at 5 min was 14.4 µg/mL (≈ 18.3 µM). In data set [1] (phosphate buffer, 30 °C, pH 6.8, aqueous buffer, thermodynamic from solid, 30 min, phosphate buffer pH 6.8, 30±0.5° C., read-out: Solubility over time, Concentration), the solubility at 30 min was found to be 28.7 µg/mL (≈ 36.5 µM). For the same molecule, the solubility at 35 min in data set [1] (phosphate buffer, 30 °C, pH 6.8, aqueous buffer, thermodynamic from solid, 35 min, phosphate buffer pH 6.8, 30±0.5° C., read-out: Solubility over time, Concentration) was found to be 22.4 µg/mL (≈ 28.5 µM). Besides, the solubility at 40 min in data set [1] (phosphate buffer, 30 °C, pH 6.8, aqueous buffer, thermodynamic from solid, 40 min, phosphate buffer pH 6.8, 30±0.5° C., read-out: Solubility over time, Concentration) came out at 17.7 µg/mL (≈ 22.5 µM). Moreover, the solubility at 45 min in data set [1] (phosphate buffer, 30 °C, pH 6.8, aqueous buffer, thermodynamic from solid, 45 min, phosphate buffer pH 6.8, 30±0.5° C., read-out: Solubility over time, Concentration) was determined as 14.9 µg/mL (≈ 19 µM). Besides, the solubility at 50 min in data set [1] (phosphate buffer, 30 °C, pH 6.8, aqueous buffer, thermodynamic from solid, 50 min, phosphate buffer pH 6.8, 30±0.5° C., read-out: Solubility over time, Concentration) stood at 13.1 µg/mL (≈ 16.7 µM). Moreover, in data set [1] (phosphate buffer, 30 °C, pH 6.8, aqueous buffer, thermodynamic from solid, 55 min, phosphate buffer pH 6.8, 30±0.5° C., read-out: Solubility over time, Concentration), the solubility at 55 min is 11.8 µg/mL (≈ 15 µM). Besides, the “Diameter Particle d10” value in data set [2] (listed as Spray Drying Process) stood at 4.56 μm. Also, in data set [2] (listed as Spray Drying Process), the “Diameter Particle d50” value was 19.60 μm. Further, in data set [2] (listed as Spray Drying Process), the “Diameter Particle d90” value is on record as 62.21 μm. Further, the Tmax in data set [3] (female, beagle, dog, po, 100 mg/kg) stood at 2 h. For the same molecule, the AUC(0-t) was 2850 ± 1490 ng·h/mL in data set [3] (female, beagle, dog, po, 100 mg/kg, read-out: AUC0-24 h, mean (±standard error)) and 143 ± 80.1 ng·h/mL in data set [3] (human (calculated), oral, 2.9 mg/kg, calculated from dog values (100 mg/kg, HED 54.4 mg/kg), mean ± standard error, read-out: AUC0-24 h, values calculated in humans proportionally reduced to the dosage 2.9 mg/kg). In addition, the Cmax was 1040 ± 588 ng/mL in data set [3] (female, beagle, dog, po, 100 mg/kg, read-out: Cmax, mean (±standard error)) and 56.1 ± 31.6 ng/mL in data set [3] (human (calculated), oral, 2.9 mg/kg, calculated from dog values (100 mg/kg, HED 54.4 mg/kg), mean ± standard error, read-out: Cmax, values calculated in humans proportionally reduced to the dosage 2.9 mg/kg). Moreover, the bulk density in the data set “Bulk density” (listed as rifaximin by spay drying) worked out at 0.257 g/mL. Moreover, the Description entry in data set [4] (1 month) was “Red-orange”; in data set [4] (3 months), “Red-orange”; in data set [4] (T0, acceptance Red-orange powder), “Red-orange”. The Total impurities in data set [4] (1 month) was 0.54%; in data set [4] (3 months), 0.95%; in data set [4] (T0, acceptance ≦2.0%), 0.51%. Also, the “Water content (Karl Fisher)” value in data set [4] (1 month) is 4.9%; in data set [4] (3 months) it was 5.4%; in data set [4] (T0, acceptance ≦8%), 2.2%. In addition, the X-Ray diffraction spectrum result in data set [4] (1 month), in data set [4] (3 months) and in data set [4] (T0) was “Complies with” in each case. The “stability of the obtained rifaximin powder” value in data set [4] (40° C.+2, relative humidity 75%, up to three months) is recorded as “stable”. The “stability of rifaximin in powder form” value in data set [4] (after three months, 30° C. to 40° C., humidity degree higher than 50%) is “stable”.

For the molecule `CO[C@H]1/C=C/O[C@@]2(C)Oc3c(C)c(O)c4c(O)c(c5c(nc6cc(C)ccn65)c4c3C2=O)NC(=O)/C(C)=C\C=C\[C@H](C)[C@H](O)[C@@H](C)[C@@H](O)[C@@H](C)[C@H](OC(C)=O)[C@@H]1C` [rifaximin by milling, rifaximin, reference compound], the “Solubility over time, Concentration” value in data set [1] (5 min, 500 mg in 750 ml phosphate buffer pH 6.8, 30±0.5° C., 250 rpm) is 10.8 mg/L (≈ 13.7 µM); in data set [1] (10 min, phosphate buffer pH 6.8, 30±0.5° C.), 14.3 mg/L (≈ 18.2 µM); in data set [1] (15 min, phosphate buffer pH 6.8, 30±0.5° C.), 15.9 mg/L (≈ 20.2 µM); in data set [1] (20 min, phosphate buffer pH 6.8, 30±0.5° C.), 16.7 mg/L (≈ 21.2 µM); in data set [1] (25 min, phosphate buffer pH 6.8, 30±0.5° C.) it was 16.9 mg/L (≈ 21.5 µM); in data set [1] (30 min, phosphate buffer pH 6.8, 30±0.5° C.), 16.7 mg/L (≈ 21.2 µM). The “Solubility over time, Concentration” value in data set [1] (35 min, phosphate buffer pH 6.8, 30±0.5° C.) stood at 16.1 mg/L (≈ 20.5 µM); in data set [1] (40 min, phosphate buffer pH 6.8, 30±0.5° C.), 15.4 mg/L (≈ 19.6 µM); in data set [1] (45 min, phosphate buffer pH 6.8, 30±0.5° C.), 14.8 mg/L (≈ 18.8 µM); in data set [1] (50 min, phosphate buffer pH 6.8, 30±0.5° C.) it was 14.0 mg/L (≈ 17.8 µM); in data set [1] (55 min, phosphate buffer pH 6.8, 30±0.5° C.), 13.5 mg/L (≈ 17.2 µM); in data set [1] (90 min, phosphate buffer pH 6.8, 30±0.5° C.) it was 10.9 mg/L (≈ 13.9 µM). In addition, the “Solubility over time, Concentration” value was 9.8 mg/L (≈ 12.5 µM) in data set [1] (105 min, phosphate buffer pH 6.8, 30±0.5° C.); 9.0 mg/L (≈ 11.5 µM) in data set [1] (120 min, phosphate buffer pH 6.8, 30±0.5° C.); 8.3 mg/L (≈ 10.6 µM) in data set [1] (135 min, phosphate buffer pH 6.8, 30±0.5° C.); 7.9 mg/L (≈ 10.1 µM) in data set [1] (150 min, phosphate buffer pH 6.8, 30±0.5° C.). The solubility at 60 min in data set [1] (phosphate buffer, 30 °C, pH 6.8, aqueous buffer, thermodynamic from solid, 60 min, phosphate buffer pH 6.8, 30±0.5° C., read-out: Solubility over time, Concentration) was determined as 12.9 µg/mL (≈ 16.4 µM). Further, the solubility at 75 min in data set [1] (phosphate buffer, 30 °C, pH 6.8, aqueous buffer, thermodynamic from solid, 75 min, phosphate buffer pH 6.8, 30±0.5° C., read-out: Solubility over time, Concentration) was found to be 12.1 µg/mL (≈ 15.4 µM). In data set [2] (listed as Milling Process), the “Diameter Particle d10” value came to 1.84 μm. Further, the “Diameter Particle d50” value in data set [2] (listed as Milling Process) was determined as 8.17 μm. Moreover, the “Diameter Particle d90” value in data set [2] (listed as Milling Process) is on record as 12.92 μm. The molecule also returned a bulk density in the data set “Bulk density” of 0.327 g/mL.

For `CO[C@H]1/C=C/O[C@@]2(C)Oc3c(C)c(O)c4c(O)c(c5c(nc6cc(C)ccn65)c4c3C2=O)NC(=O)/C(C)=C\C=C\[C@H](C)[C@H](O)[C@@H](C)[C@@H](O)[C@@H](C)[C@H](OC(C)=O)[C@@H]1C` [rifaximin, (2S,16Z,18E,20S,21S,22R,23R,24R,25S,26S,27S,28E)-5,6,21,23,25 pentahydroxy-27-methoxy-2,4,11,16,20,22,24,26-octamethyl-2,7-(epoxypentadeca-(1,11,13)trienimino) benzofuro (4,5-e) pyrido(1,2,-a) benzimi-dazole-1,15(2H)-dione,25-acetate], the “effect of pH variation on solubility” value in data set [5] (pH variation between 5 and 7) is recorded as “does not affect the solubility”. For the same molecule, in data set [6], the “sub-inhibitory concentration at which alteration of virulence factor occurs” value is 32 folds lower than the MIC values. For the same molecule, the “virulence of the pathogens” value in data set [7] (contact maintained only for 8 hours) is reported as “not abolished”. Moreover, in data set [7] (continuous contact for at least 24 hours), the “concentration effective in the alteration of the virulence” value is given as 8 fold lower than MIC.

As for `CO[C@H]1/C=C/O[C@@]2(C)Oc3c(C)c(O)c4c(O)c(c5c(nc6cc(C)ccn65)c4c3C2=O)NC(=O)/C(C)=C\C=C\[C@H](C)[C@H](O)[C@@H](C)[C@@H](O)[C@@H](C)[C@H](OC(C)=O)[C@@H]1C` [rifaximin-α, rifaximin], the solubility in data set [5] (aqueous buffer, pH 4 buffer solution) was 4.12 µg/mL (≈ 5.24 µM); in data set [5] (aqueous buffer, pH 7 buffer solution), 3.22 µg/mL (≈ 4.1 µM); in data set [5] (aqueous buffer, pH 10 buffer solution), 299 µg/mL (≈ 380 µM); in data set [5] (Purified water, saturated solutions of rifaximin-α), 3.63 µg/mL (≈ 4.62 µM).
